From patent US11964971B2, “Methods and compositions for modulating splicing” (Skyhawk Therapeutics, Inc., priority 2019, dated 2024)
Like-named read-outs stand apart in the source and are kept apart here.

Legend:
SMN protein = SMN protein assay (MSD) in SMA patient fibroblasts (GM03813); assay type: cell-based, human
Summary of the method: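 SMA patient fibroblasts GM03813 (7000 cells/well) treated 48 h with compounds from 2.5 μM to 0.6 nM. Lysate SMN protein quantified by MSD immunoassay against an SMN standard curve (1 to 19.5 μg/ml) on each plate, giving absolute amounts.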

[1] = tested on: MDR1-MDCK cell monolayers; test: MDCK-MDR1 permeability assay, blood-brain-barrier penetration potential
Experimental: (§1) Experimental Procedure: MDR1-MDCK cell monolayers are grown to confluence on collagen-coated, microporous membranes in 12-well assay plates. The permeability assay buffer is Hanks' balanced salt solution containing 10 mM HEPES and 15 mM glucose at a pH of 7.4. The buffer in the receiver chamber also contained 1% bovine serum albumin. The dosing solution concentration is 5 μM of test article in the assay buffer. Cell monolayers are dosed on the apical side (A-to-B) or basolateral side (B-to-A) and incubated at 37° C. with 5% CO2 in a humidified incubator. Samples are taken from the donor and receiver chambers at 120 minutes. Each determination is performed in duplicate. The flux of lucifer yellow is also measured post-experimentally for each monolayer to ensure no damage was inflicted to the cell monolayers during the flux period. All samples are assayed by LC-MS/MS using electrospray ionization.
(§2) Analytical Method: Liquid Chromatography • Column: Waters ACQUITY UPLC BEH Phenyl 30×2.1 mm, 1.7 μm • M.P. Buffer: 25 mM ammonium formate buffer, pH 3.5 • Aqueous Reservoir (A): 90% water, 10% buffer • Organic Reservoir (B): 90% acetonitrile, 10% buffer • Flow Rate: 0.7 mL/minute • Gradient Program:
(§3) • Total Run Time: 1.00 minute • Autosampler: 2 μL injection volume • Wash1: water/methanol/2-propanol:1/1/1; with 0.2% formic acid • Wash2: 0.1% formic acid in water • Brain Penetration • Potential Classification: A-B Papp≥3.0 and Efflux Ratio<3.0: High • A-B Papp≥3.0 and 10>Efflux Ratio≥3.0: Moderate • A-B Papp≥3.0 and Efflux Ratio≥10: Low • A-B Papp<3.0: Low

SMN FL and SMN Δ7 = test: Quantitative splicing assay (SMN) in SMA patient fibroblasts (GM03813); assay type: cell-based; details: Homo sapiens, Fibroblast; class symbol; read-out: SMN2 Splicing FL EC50 (nM)*
Experimental: Spinal muscular atrophy (SMA) patient fibroblasts (GM03813, Coriell) are plated in 96-well plates at 50,000 cells/well. […] Treated cells are lysed and cDNA synthesized using the Fast Advanced Cells-to-Ct kit (Thermofisher A35378) according to the manufacturer's instructions. 2 μL of each cDNA are used in qPCR reactions. […] Reactions are run in a Quant Studio 6 qPCR instrument with default settings.

[2] = tested on: MDR1-MDCK cell monolayers; details: dog, MDCK-MDR1, 120 min, 5 μM, pH 7.4
Experimental: as §1, §2, §3

MDR1 (P-gp) [3] = test: in vitro; details: dog, MDCK-MDR1, pH 7.4
Experimental: as §1, §2, §3

MDR1 [4] = test: in vitro; details: dog; for Papp A→B at 120 min, 5 μM: MDCK-MDR1, pH 7.4, MDCK-MDR1: Papp A-B (10^−6, cm/s); for Papp B→A at 120 min, 5 μM: MDCK-MDR1, pH 7.4, MDCK-MDR1: Papp B-A (10^−6, cm/s)
Experimental: as §1, §2, §3

MDR1 (P-gp) [5] = test: MDCK-MDR1 permeability assay, blood-brain-barrier penetration potential; details: dog, MDCK-MDR1, pH 7.4, MDCK-MDR1 Efflux Ratio
Experimental: as §1, §2, §3

MDR1 [6] = test: as above; details: dog, MDCK-MDR1, pH 7.4
Experimental: as §1, §2, §3

[7] = dog, MDCK-MDR1, 120 min, 5 μM, pH 7.4

2-(5-(((1S,2S,3R,5R)-2-fluoro-8-azabicyclo[3.2.1]octan-3-yl)(methyl)aniino)pyrazin-2-yl)-5-(6-methoxypyrimidin-4-yl)phenol [Compound 34E1]
EC50 (SMN protein): 101 to 500 nM
MDCK-MDR1: % Recov A-B (%) ([1]; A-B): 20%
MDCK-MDR1: Papp A-B (10^−6, cm/s) ([1]; A-B): 2.78 10^−6, cm/s
MDCK-MDR1: % Recov B-A (%) ([1]; B-A): 60%
MDCK-MDR1: Papp B-A (10^−6, cm/s) ([1]; B-A): 8.79 10^−6, cm/s
MDCK-MDR1 Efflux Ratio ([1]; MDCK-MDR1): 3

CN(c1cnc(-c2cc(F)c(-c3cnn(C)c3)cc2O)cn1)[C@H]1C[C@@H]2CCC(N2)[C@H]1F (single isomer, unassigned) [Compound 17E2]
EC50 (SMN FL and SMN Δ7): 101 to 500 nM
EC50 (SMN protein): 0.01 to 15 nM
MDCK-MDR1: % Recov A-B (%) [2]: 24%
MDCK-MDR1: % Recov B-A (%) [2]: 52%
MDCK-MDR1: Papp A-B (10^−6, cm/s) [2]: 4.68 10^−6, cm/s
MDCK-MDR1: Papp B-A (10^−6, cm/s) [2]: 18 10^−6, cm/s
MDCK-MDR1 Efflux Ratio [1, 7]: 4

Cn1cc(-c2ccc(-c3cnc(N(C4CC4)[C@@H]4CC5CC[C@H](N5)[C@@H]4F)cn3)c(O)c2)cn1 (single isomer, unassigned) [Compound 49E2]
EC50 (SMN protein): 501 to 10000 nM
MDCK-MDR1: % Recov A-B (%) [2]: 48%
MDCK-MDR1: % Recov B-A (%) [2]: 63%
MDCK-MDR1: Papp A-B (10^−6, cm/s) [2]: 4.55 10^−6, cm/s
MDCK-MDR1: Papp B-A (10^−6, cm/s) [2]: 34.9 10^−6, cm/s
MDCK-MDR1 Efflux Ratio [1, 7]: 8

COc1cc(-c2cc(O)c(-c3cnc(N(C)[C@@H]4C[C@@]5(C)CC[C@](C)(N5)[C@@H]4F)cn3)cc2F)cnn1 (single isomer, unassigned) [Compound 64E2]
EC50 (SMN protein): 101 to 500 nM
MDCK-MDR1: % Recov A-B (%) [2]: 69%
MDCK-MDR1: % Recov B-A (%) [2]: 78%
MDCK-MDR1: Papp A-B (10^−6, cm/s) [2]: 4.1 10^−6, cm/s
MDCK-MDR1: Papp B-A (10^−6, cm/s) [2]: 44.1 10^−6, cm/s
MDCK-MDR1 Efflux Ratio [1, 7]: 11

CNC(=O)/C=C/c1cc(O)c(-c2cnc(N(C3CC3)[C@H]3C[C@]4(C)CC[C@@](C)(N4)[C@H]3F)cn2)cc1F (single isomer, unassigned) [Compound 79E2]
MDCK-MDR1: % Recov A-B (%) [2]: 91%
MDCK-MDR1: % Recov B-A (%) [2]: 89%
efflux ratio at 120 min, 5 μM (MDR1 (P-gp) [3]): 26
Papp A→B at 120 min, 5 μM (MDR1 [4]): 2.05 ×10⁻⁶ cm/s
Papp B→A at 120 min, 5 μM (MDR1 [4]): 52.7 ×10⁻⁶ cm/s

CN(c1cnc(-c2ccc(-c3cn[nH]c3)cc2O)cn1)[C@@H]1C[C@@]2(C)CC[C@](C)(N2)[C@@H]1F [Compound 22E1, 2-(5-(((1S,2R,3R,5R)-2-fluoro-1,5-dimethyl-8-azabicyclo[3.2.1]octan-3-yl)(methyl)amino)pyrazin-2-yl)-5-(1H-pyrazol-4-yl)phenol]
EC50 (SMN protein): 501 to 10000 nM
efflux ratio at 120 min, 5 μM (MDR1 (P-gp) [5]): 10
MDCK-MDR1: % Recov A-B (%) ([1]; A-B): 63%
MDCK-MDR1: % Recov B-A (%) ([1]; B-A): 78%
Papp A→B at 120 min, 5 μM (MDR1 [6]): 4.14 ×10⁻⁶ cm/s
Papp B→A at 120 min, 5 μM (MDR1 [6]): 39.8 ×10⁻⁶ cm/s

CN(c1cnc(-c2ccc(-c3cn[nH]c3)cc2O)cn1)[C@H]1C[C@]2(C)CC[C@@](C)(N2)[C@H]1F [Compound 22E2, 2-(5-(((1R,2S,3S,5S)-2-fluoro-1,5-dimethyl-8-azabicyclo[3.2.1]octan-3-yl)(methyl)amino)pyrazin-2-yl)-5-(1H-pyrazol-4-yl)phenol]
EC50 (SMN protein): 501 to 10000 nM
efflux ratio at 120 min, 5 μM (MDR1 (P-gp) [5]): 10
MDCK-MDR1: % Recov A-B (%) ([1]; A-B): 66%
MDCK-MDR1: % Recov B-A (%) ([1]; B-A): 81%
Papp A→B at 120 min, 5 μM (MDR1 [6]): 3.49 ×10⁻⁶ cm/s
Papp B→A at 120 min, 5 μM (MDR1 [6]): 34.5 ×10⁻⁶ cm/s

CN(c1cnc(-c2cc(F)c(-c3cn[nH]c3)cc2O)cn1)[C@H]1C[C@]2(C)CC[C@@](C)(N2)[C@H]1F [Compound 57E2, 4-fluoro-2-(5-(((1R,2S,3S,5S)-2-fluoro-1,5-dimethyl-8-azabicyclo[3.2.1]octan-3-yl)(methyl)amino)pyrazin-2-yl)-5-(1H-pyrazol-4-yl)phenol]
EC50 (SMN FL and SMN Δ7): 501 to 10000 nM
EC50 (SMN protein): 0.01 to 15 nM
MDCK-MDR1: % Recov A-B (%) [2]: 35%
MDCK-MDR1: % Recov B-A (%) [2]: 64%
Papp A→B at 120 min, 5 μM (MDR1 [4]): 5.8 ×10⁻⁶ cm/s
Papp B→A at 120 min, 5 μM (MDR1 [4]): 20 ×10⁻⁶ cm/s
efflux ratio at 120 min, 5 μM (MDR1 (P-gp) [5]): 3

CN(c1cnc(-c2cc(F)c(-c3cnn(C)c3)cc2O)cn1)[C@H]1C[C@]2(C)CC[C@@](C)(N2)[C@H]1F [Compound 58E2, 4-fluoro-2-(5-(((1R,2S,3S,5S)-2-fluoro-1,5-dimethyl-8-azabicyclo[3.2.1]octan-3-yl)(methyl)amino)pyrazin-2-yl)-5-(1-methyl-1H-pyrazol-4-yl)phenol]
EC50 (SMN FL and SMN Δ7): 101 to 500 nM
EC50 (SMN protein): 0.01 to 15 nM
MDCK-MDR1: % Recov A-B (%) [2]: 32%
MDCK-MDR1: % Recov B-A (%) [2]: 69%
Papp A→B at 120 min, 5 μM (MDR1 [4]): 5.98 ×10⁻⁶ cm/s
Papp B→A at 120 min, 5 μM (MDR1 [4]): 16.4 ×10⁻⁶ cm/s
efflux ratio at 120 min, 5 μM (MDR1 (P-gp) [5]): 3

CNC(=O)/C=C/c1cc(O)c(-c2cnc(N(C)[C@H]3C[C@]4(C)CC[C@@](C)(N4)[C@H]3F)cn2)cc1F [Compound 61E2, (E)-3-(2-fluoro-4-(5-(((1R,2S,3S,5S)-2-fluoro-1,5-dimethyl-8-azabicyclo[3.2.1]octan-3-yl)(methyl)amino)pyrazin-2-yl)-5-hydroxyphenyl)-N-methylacrylamide]
EC50 (SMN FL and SMN Δ7): 501 to 10000 nM
EC50 (SMN protein): 0.01 to 15 nM
MDCK-MDR1: % Recov A-B (%) [2]: 86%
MDCK-MDR1: % Recov B-A (%) [2]: 89%
Papp A→B at 120 min, 5 μM (MDR1 [4]): 0.77 ×10⁻⁶ cm/s
Papp B→A at 120 min, 5 μM (MDR1 [4]): 41.9 ×10⁻⁶ cm/s
efflux ratio at 120 min, 5 μM (MDR1 (P-gp) [5]): 54

CN(c1cnc(-c2cc(F)c(-c3ccn(C)c(=O)c3)cc2O)cn1)[C@@H]1C[C@@]2(C)CC[C@](C)(N2)[C@@H]1F [Compound 62E1, 4-(2-fluoro-4-(5-(((1S,2R,3R,5R)-2-fluoro-1,5-dimethyl-8-azabicyclo[3.2.1]octan-3-yl)(methyl)amino)pyrazin-2-yl)-5-hydroxyphenyl)-1-methylpyridin-2(1H)-one]
EC50 (SMN protein): 501 to 10000 nM
MDCK-MDR1: Papp A-B (10^−6, cm/s) [2]: 2.88 10^−6, cm/s
MDCK-MDR1: Papp B-A (10^−6, cm/s) [2]: 41.5 10^−6, cm/s
Papp A→B at 120 min, 5 μM (MDR1 [4]): 2.82 ×10⁻⁶ cm/s
Papp B→A at 120 min, 5 μM (MDR1 [4]): 30.7 ×10⁻⁶ cm/s
efflux ratio at 120 min, 5 μM (MDR1 (P-gp) [5]): 11
MDCK-MDR1 Efflux Ratio [1, 7]: 14

CN(c1cnc(-c2ccc(-c3cc[nH]c(=O)c3)cc2O)cn1)[C@H]1C[C@@H]2CC[C@@H](N2)[C@H]1F [Compound 76E2, 4-(4-(5-(((1R,2R,3S,5S)-2-fluoro-8-azabicyclo[3.2.1]octan-3-yl)(methyl)amino)pyrazin-2-yl)-3-hydroxyphenyl)pyridin-2(1H)-one]
EC50 (SMN FL and SMN Δ7): 101 to 500 nM
EC50 (SMN protein): 16 to 50 nM
MDCK-MDR1: % Recov A-B (%) [2]: 93%
MDCK-MDR1: % Recov B-A (%) [2]: 75%
Papp A→B at 120 min, 5 μM (MDR1 [4]): 0.37 ×10⁻⁶ cm/s
Papp B→A at 120 min, 5 μM (MDR1 [4]): 28.9 ×10⁻⁶ cm/s
efflux ratio at 120 min, 5 μM (MDR1 (P-gp) [5]): 78
